{"source": "patent US10973868B2", "about": "“Composition for topical use based on a carnosine-magnesium complex” (Outplay Inc., priority 2016, dated 2021)", "key": {"[1]": {"tested_on": "adults with chronic schizophrenia", "assay": "L-carnosine adjunctive treatment in chronic schizophrenia, strategic target detection test", "type": "in vivo, human", "conditions": "2 g/day adjunctive, 3 months, vs placebo", "text": "Improved Cognition In Schizophrenia: Targeting glutamatergic dysfunction provides an exciting opportunity to improve cognitive impairment in schizophrenia. One treatment approach has targeted inadequate antioxidant defenses at glutamatergic synapses. […] We conducted a preliminary study to test the hypothesis that L-carnosine, an antioxidant and anti-glycation agent which is co-localized and released with glutamate would improve executive dysfunction, a cognitive domain associated with glutamate. Seventy-five symptomatically stable adults with chronic schizophrenia were randomly assigned to L-carnosine as adjunctive treatment (2 g/day) or a matched placebo in a double-blind manner for 3 months. […] The recommended dosage is 4-6 ml of the exemplary composition of the topical composition illustrated above four times a day applied to all four limbs."}, "[2]": {"conditions": "aqueous solution; cited from earlier work"}, "[3]": {"tested_on": "horse fibre types", "conditions": "cited from earlier work"}, "[4]": {"tested_on": "muscle fibres of Rana Temporaria", "conditions": "15 mM of carnosine; cited from earlier work"}, "[5]": {"tested_on": "rat extensor digitorum longus muscle fibres", "conditions": "mechanically skinned fibres; cited from earlier work"}, "[6]": {"tested_on": "children with autistic spectrum disorders", "conditions": "after 8 weeks, P<0.05; cited from earlier work"}, "[7]": {"tested_on": "mice", "conditions": "cited from earlier work"}}, "note": "Where two headings read alike, the source gives them in different places."}
{"smiles": "NCCC(=O)N[C@@H](Cc1c[nH]cn1)C(=O)O", "note": "[carnosine, β-alanyl-L-histidine]", "values": [{"measurement": "perseverative errors on the strategic target detection test", "setting": "[1]", "value": "fewer perseverative errors"}, {"measurement": "strategic efficiency on the strategic target detection test", "setting": "[1]", "value": "significantly improved"}, {"measurement": "pK of the carboxylic function", "setting": "[2]", "value": 2.6}, {"measurement": "contribution to buffering", "setting": "[3]; type I fibres", "value": "about 20%"}, {"measurement": "contribution to buffering", "setting": "[3]; type IIb fibres", "value": "up to 46%"}, {"measurement": "Ca^2+ sensitivity", "setting": "[4]", "value": "significant increase"}, {"measurement": "Ca^2+ release from the sarcoplasmic reticulum", "setting": "[5]", "value": "did not affect"}, {"measurement": "Ca^2+ sensitivity of the contractile components", "setting": "[5]", "value": "increase"}, {"measurement": "Gilliam Autism Rating Scale (total score and Behavior, Socialization, Communication subscales)", "setting": "[6]", "value": "statistically significant improvements"}, {"measurement": "Receptive One-Word Picture Vocabulary test", "setting": "[6]", "value": "statistically significant improvements"}, {"measurement": "amount of brain tissue involved in experimentally-produced strokes", "setting": "[7]", "value": "significantly reduced"}]}
